“Also recorded” adds a separate entry of the source. Where two headings read alike, the source gives them in different places.
Experiments:
Assay type in all cases: cell-based
[1] = test system: HCT116 human colon cancer cells; assay: Cell proliferation (cell confluence), IncuCyte Live-Cell Analysis system
[2] = test system: HCT116 human colon cancer cells; assay: as above; conditions: for Cell Confluence (%): when control cells reached ~90% confluence, n = 4; for IC50: Homo sapiens, HCT-116, at ~90% confluence of control; for inhibition of proliferation of HCT116 cells / IC50: HCT116
From the text: FIG. 1. Effects of HU and Mito-HUs on proliferation of HCT116 human colon cancer cells (A) Effects of HU and Mito-HUs on the proliferation of HCT116 cells were monitored in the IncuCyte Live-Cell Analysis system. The IncuCyte Analyzer provides real-time updates on cell confluence, based on segmentation of high definition-phase contrast images. Representative cell images were shown as segmentation mask illustrated in brown when control cells reached 90% confluence (vertical solid black line). (B) The IC50 values were determined at the point at which control cells reached ˜90% confluence (vertical solid black line). Relative cell confluence (control is taken as 100%) is plotted against concentration. Dashed lines represent the fitting curves used to determine the IC50 values as indicated. Data shown are the means & SD.
(§1) The following cell lines were obtained from the American Type Culture Collection (Manassas, VA), where they were regularly authenticated: HCT116 (ATCC Cat #CRL-247, human colon cancer cells) and MiaPaCa-2 (ATCC Cat #CRL-1420, human pancreatic cancer cells). All cells were cultured in a humidified incubator at 37° C. and 5% carbon dioxide. HCT116 cells were maintained in RPMI 1640 medium (Thermo Fisher Scientific, Cat #11875), supplemented with 10% fetal bovine serum. MiaPaCa-2 cells were maintained in Dulbecco's Modified Eagle Medium (Thermo Fisher Scientific, Waltham, MA; Cat #11965) supplemented with 10% fetal bovine serum. All cells were stored in liquid nitrogen and used within 20 passages after thawing.
(§2) The IncuCyte Live-Cell Analysis system (Essen Bioscience Inc., Ann Arbor, MI) was used to monitor cell proliferation (Cheng et al., 2013, 2016; Boyle et al., 2018). As shown in previous publications (Cheng et al., 2013, 2016), this imaging system is probe-free and noninvasive, and enables continuous monitoring of cell confluence over several days. The increase in the percentage of cell confluence was used as a surrogate marker of cell proliferation. In a 96-well plate, cells were plated at 1,000 cells per well in triplicates and left to adhere overnight. Cells were then treated with HU and Mito-HUs, and the cell confluency was recorded over several days in the IncuCyte Live-Cell Analysis system.

[3] = test system: MiaPaCa-2 human pancreatic cancer cells; assay: Cell proliferation, IncuCyte Live-Cell Analysis system
From the text: FIG. 7. Effects of HU and Mito10-HU on proliferation of MiaPaCa-2 human pancreatic cancer cells; MiaPaCa-2 cells treated with HU or Mito10-HU were monitored in the IncuCyte Live-Cell Analysis system. Cell proliferation was monitored in real-time with the continuous presence of indicated treatments until the end of each experiment. Data shown are the means±SD.
as §1, §2

[4] = molecular target: mitochondrial complex I (Homo sapiens, UniProt O75251+O75306+P03886); assay: Complex I-dependent oxygen consumption (OCR), Seahorse XF-96, HCT116 cells; conditions: HCT116, 24 hr
Method: (§3) FIG. 2. Effects of HU and Mito-HUs on the oxygen consumption by mitochondrial complexes I and III (A) Dose-dependent effects of HU, Mito10-HU, Mito12-HU, Mito14-HU, Mito16-HU, and Mito20-HU on complex I- and complex III-dependent oxygen consumption were measured in HCT116 cells. HCT116 cells were treated with HU or Mito-HUs as indicated for 24 hr. Mitochondrial complex I activity (left) and complex III activity (right) were monitored by a Seahorse XF-96 analyzer. Either rotenone (complex I inhibitor) or antimycin A (complex III inhibitor) was acutely added and OCR assayed immediately. (B) The mitochondrial complex I (left) and III (right) dependent oxygen consumption (calculated as rotenone or antimycin A inhibitable OCR) are plotted against concentration of HU and Mito-HUs. Dashed lines represent the fitting curves used for determination of the IC50 values. Data shown are the means G SD.
(§4) Mitochondrial oxygen consumption was measured using the Seahorse XF-96 Extracellular Flux Analyzer (Agilent, North Billerica, MA) (Cheng et al., 2013, 2016; Boyle et al., 2018; Weinberg and Chandel, 2015). After cells were treated with HU or Mito-HUs for 24 hr, the OCR-based assessment of mitochondrial complex activities was carried out on acutely permeabilized cells in the presence of different mitochondrial substrates, i.e., pyruvate/malate for complex I and duroquinol for complex III (Cheng et al., 2016, 2019; Salabei et al., 2014; Wheaton et al., 2014). Rotenone, malonate, and antimycin A (Sigma-Aldrich, St. Louis, MO) were used as specific inhibitors of mitochondrial complexes I, II, and III, respectively. Briefly, cells that were intact after treatments were immediately permeabilized using the Seahorse XF Plasma Membrane Permeabilizer (Agilent). The mitochondrial complex I-induced OCR was assayed in mannitol and sucrose buffer (Salabei et al., 2014) containing 10 mM pyruvate and 1.5 mM malate (substrates for complex I) and 10 mM malonate (which inhibits complex II activities). The mitochondrial complex III-driven OCR was assayed in a mannitol and sucrose buffer containing 0.5 mM duroquinol (substrate for complex III) as well as […] and 10 mM malonate (which inhibit both complex I and II activities). The IC50 values were determined as previously reported (Cheng et al., 2019).

[5] = molecular target: T1, mitochondrial complex III (Homo sapiens, UniProt P00156+P47985); assay: Complex III-dependent oxygen consumption (OCR), Seahorse XF-96, HCT116 cells; conditions: HCT116, 24 hr
T1 construct: other: mean ± SD; HCT116, 24 hr treatment; Complex III activity (OCR, % of control); other: 0.1 μM, 24 hr, HCT116; n = 4; other: 0.5 μM, 24 hr, HCT116; other: 0.75 μM, 24 hr, HCT116; other: 1 μM, 24 hr, HCT116; Compl
Method: as §3, §4

[6] = read-out: IC50 proliferation of HCT116 cells

SMILES: Cc1[nH]nc(C(F)(F)F)c1Cc1sc2c(c1C(=O)N1C[C@](C)(O)CO1)c(=O)n(C)c(=O)n2C(C)C [AZD-3965, reference compound]
- antiproliferative effect, each alone (AZD-3965 experiment) ([1]; Mito10-HU (5 μM) or AZD-3965 (100 μM) independently, HCT-116): negligible antiproliferative effects

SMILES: CCOC(=O)Oc1c(OC)cc(C(=O)O[C@@H]2C[C@@H]3CN4CCc5c([nH]c6cc(OC)ccc56)[C@H]4C[C@@H]3[C@H](C(=O)OC)[C@H]2OC)cc1OC [syrosingopine, reference compound]
- effect on cell proliferation, each alone (syrosingopine experiment) ([1]; Mito10-HU (5 μM) or syrosingopine (7.5 μM) independently, HCT116): minimally affected cell proliferation

SMILES: NC(=O)NOCCCC[P+](c1ccccc1)(c1ccccc1)c1ccccc1.O=C([O-])C(F)(F)F [Mito4-HU, 4-[(carbamoylamino)oxy]-butyltriphenylphosphonium trifluoroacetate]
- Cell Confluence (%) ([2]; 100 μM): 92.40%
- Cell Confluence (%) ([2]; 200 μM): 90.77%
- Cell Confluence (%) ([2]; 400 μM): 80.77%
- Cell Confluence (%) ([2]; 600 μM): 47.24%
- inhibition of proliferation of HCT116 cells ([2]; trifluoroacetate): dose-dependently inhibited proliferation; also recorded: lower than that of HU
- IC50 [2, 6]: > 600 µM
- IC50 ([2]; mean ± SD, read-out: IC50 Cell Proliferation (FIG. 1)): > 600 µM
- inhibition of proliferation of MiaPaCa-2 cells [3]: did not inhibit the proliferation

SMILES: O=C(NO)NC(=O)NCCCCCCCCCC[P+](c1ccccc1)(c1ccccc1)c1ccccc1.O=C([O-])C(F)(F)F [Mito10-HUNHTPP^+, 10-[(hydroxycarbamoyl)carbamoylamino]-decyltriphenylphosphonium trifluoroacetate]
- inhibition of proliferation of HCT116 cells [2]: inhibited HCT116 cell proliferation

SMILES: CCCCCCCCCCONC(N)=O [Decyl-HU, decyloxyurea, reference compound]
- IC50 [2, 6]: > 600 µM

SMILES: Cc1ccc([P+](CCCCCCCCCCONC(N)=O)(c2ccc(C)cc2)c2ccc(C)cc2)cc1.O=C([O-])C(F)(F)F [Mito10-HUtriMe, 10-[(carbamoylamino)oxy]-decyl-tris-p-tolylphosphonium trifluoroacetate]
- effect on complex I-induced oxygen consumption [4]: more potently than Mito10-HU
- IC50 [2, 6]: 3.7 µM
- effect on complex III-induced oxygen consumption [5]: more potently than Mito10-HU
